Measured values published in US20050043319A1, “Molecular target of neurotoxicity” (EXONHIT THERAPEUTICS SA, priority 2001, published 2005).
Read-outs that look alike come from different tables or passages of the source.

Legend:
[1] = tested on: Amyotrophic Lateral Sclerosis (ALS); conditions: ALS patients; cited from earlier work
[2] = tested on: cortical neurons; experiment: Excitotoxicity protection in primary cortical cell cultures (MTT test); type: cell-based, rat; conditions: 6 hour incubation
Description: Sixteen-day-old embryos from Wistar rats were removed and the cortex dissected. […] After four days of culture, half of the medium was replaced by minimum essential medium supplemented with 5% horse serum and 2 mM glutamine. On the same day, 10 μM 5-fluoro-2-deoxyuridine, an antimitotic agent, was added. After 7 and 11 days of culture, half of the medium was replaced by conditioned medium composed of MEM supplemented with 5% horse serum and 2 mM glutamine; this medium was passed overnight on a layer of cortical astrocytes before use.
Toxicity was measured with an MTT test.

[3] = tested on: rat brain granular cells; conditions: for protection of brain granular cells: 6 hour incubation, MTT; for protective effect on neuron survival: neurons cotreated with PDE4 inhibitor, both excitotoxicity inducers (NMDA/serine and kainate), FIGS. 2 to 10
[4] = NMDA/serine treatment (20 μM NMDA + 10 μM D-serine)
[5] = kainate-induced toxicity (50 μM kainate)
[6] = NMDA/serine treatment (100 μM NMDA + 10 μM D-serine)

Compound: Nc1nc2ccc(OC(F)(F)F)cc2s1 [Riluzole]
- improvement in the measures of muscular strength [1]: does not provide improvement

Compound: CCOC(=O)c1cnc2c(cnn2CC)c1NN=C(C)C [etazolate]
- protective effect on cortical neurons [2, 4]: 33%
- protective effect on cortical neurons [2, 5]: 25%
- protection of brain granular cells [3, 6]: 60%
- protection of brain granular cells [3, 5]: 57%
- protective effect on neuron survival [3]: dose-dependent protective effect

Compound: CC(=O)CCCCn1c(=O)c2c(ncn2C)n(C)c1=O [pentoxifylline]
- protective effect on cortical neurons [2, 4]: 50%
- protective effect on cortical neurons [2, 5]: 66%
- protection of brain granular cells [3, 6]: 43%
- protection of brain granular cells [3, 5]: 33%
- protective effect on neuron survival [3]: dose-dependent protective effect
